US20090317372A1, “SMALL MOLECULES FOR THE REDUCTION OF HIGH BLOOD GLUCOSE LEVEL” (priority 2008, published 2009)

Experiments:
Type in all cases: in vivo
C57/BL/6 mice [1] = test: Blood glucose level in normal (non-diabetic) mice without glucose challenge; settings: food deprived 2 h
Experimental: Female C57/BL/6 mice (25-27-g body weight) were deprived of food for 2 hours and then injected with 4.5-mg/kg of CCcompound1. Blood samples for glucose measurements were taken from the eyes (canthus) just before the administration of CCcompound1 (0 min) as well as 30 min and 120 min after the administration of CCcompound1. Glucose concentrations in whole blood samples were immediately measured with the Fast Glucose C test. The data are the mean±std.dev. of 5 determinations, i.e. one determination with each of the 5 animals. […] In this experiment, the period of food deprivation was short enough that compensatory mechanisms could maintain the blood glucose level near the normal 5-mM value. The condition employed also reflects the human eating habits, because normally there is at least a 2 hours interval between meals and snacks. Thus, with normal subjects under normal conditions, CC compounds are not expected to appreciably change the physiological level of blood glucose level that is about 5-mM on average.

C57/BL/6 mice [2] = test: Glucose tolerance test with normal mice (CC1, CC3, CC19)
Experimental: C57/BL/6 female mice weighing 22-23-g and fasted for 14 hours before intraperitoneal (i.p.) administration of glucose (3-g/kg) were used. None of the animals received any food during the experiment other than glucose. The animals received i.p. injections of 4.5-mg/kg of CCcompound1, CCcompound3, or CCcompound19 either 1 hour or 24 hours prior to glucose administration as indicated in TABLE 3. Blood samples were taken from the eyes (canthus), and glucose concentrations in whole blood samples were immediately measured with the Fast Glucose C test. Each group included six animals. The data, shown in TABLE 3, are the mean±std. dev. of 6 determinations, i.e. one determination with each of the six animals. In this and all subsequent experiments the values at 0 min reflect glucose concentration in blood samples collected 1-5 minutes prior to the administration of glucose.

[3] = test system: BDF1 (C57/BL/6 female×DBA/2 male) mice; test: Glucose tolerance test with BDF1 mice, CCcompound1 and sub-optimal insulin; settings: CCcompound1 4.5-mg/kg i.p. −15 min and/or insulin 0.02 IU −10 min
Experimental: In this experiment again, a sub-optimal dose of insulin was used to probe if CCcompound1 can enhance the effect of insulin on blood glucose. This time first generation hybrid BDF1 (C57/BL/6 female×DBA/2 male) adult (10-12 weeks old) male mice weighing 28-30-g and fasted for 14 hours before i.p. glucose administration (3-g/kg) were used. These mice were […] than mice in the previous experiment described under Example 5. None of the animals received any food during the experiment other than glucose. The animals received i.p. injections of 4.5-mg/kg of CCcompound1 and 0.02 IU of insulin 15 min and 10 min prior to glucose administration. Blood samples were taken and glucose concentrations in whole blood samples determined as described earlier. Each group included six animals. The data are the mean±std. dev. of 6 determinations, i.e. one determination with each of the six animals.

Wistar rats = test: Glucose tolerance test in starved rats
Experimental: Male Wistar rats weighing 240-270-g were divided into 3 groups, each group consisting of 6 or 7 animals. To ensure standard conditions animals were starved for 14 hours before the start of the experiment. CCcompound1 and CCcompound3 were injected (i.p.) 30 min prior to injecting 3-g/kg of glucose (i.p.). Blood sugar values of the experimental animals were measured with the Fast Glucose C-test; blood samples were taken from the tail. The data are the mean±std. dev. of 6-7 determinations, i.e. one determination with each of the 6-7 animals in the respective groups.

Structure (SMILES): Cc1c(OCC(O)C[N+](C)(C)C)cc2c(=O)c3ccccc3sc2c1C.[Cl-] (centres unmarked) [CCcompound 1, [3-(3,4-Dimethyl-9-oxo-9H-thioxanthen-2-yloxy)-2-hydroxypropyl]trimethyl-ammonium chloride]
- Blood glucose (C57/BL/6 mice [1]; 0 min, just before 4.5-mg/kg): 5.1 ± 0.5 mM
- Blood glucose (C57/BL/6 mice [1]; 30 min after 4.5-mg/kg): 4.9 ± 0.4 mM
- Blood glucose (C57/BL/6 mice [1]; 120 min after 4.5-mg/kg): 4.9 ± 0.6 mM
- Blood glucose (C57/BL/6 mice [2]; 4.5-mg/kg i.p. 1 h prior to glucose 3-g/kg i.p., 0 min): 1.3 ± 0.3 mM
- Reduction of blood glucose level (C57/BL/6 mice [2]; 4.5-mg/kg i.p. 1 h prior to glucose, 30th min of test period): 33%
- Blood glucose (C57/BL/6 mice [2]; 4.5-mg/kg i.p. 1 h prior to glucose, 30 min): 5.4 ± 0.5 mM
- Blood glucose (C57/BL/6 mice [2]; 4.5-mg/kg i.p. 1 h prior to glucose, 60 min): 4.3 ± 0.4 mM
- Blood glucose (C57/BL/6 mice [2]; 4.5-mg/kg i.p. 1 h prior to glucose, 120 min): 2.8 ± 0.2 mM
- Blood glucose (C57/BL/6 mice [2]; 4.5-mg/kg i.p. 1 h prior to glucose, 180 min): 2.2 ± 0.2 mM
- Blood glucose (C57/BL/6 mice [2]; 4.5-mg/kg i.p. 24 h prior to glucose, 0 min): 1.4 ± 0.2 mM
- Blood glucose (C57/BL/6 mice [2]; 4.5-mg/kg i.p. 24 h prior to glucose, 30 min): 7.0 ± 0.7 mM
- Blood glucose (C57/BL/6 mice [2]; 4.5-mg/kg i.p. 24 h prior to glucose, 60 min): 5.2 ± 0.4 mM
- Blood glucose (C57/BL/6 mice [2]; 4.5-mg/kg i.p. 24 h prior to glucose, 120 min): 3.4 ± 0.3 mM
- Blood glucose (C57/BL/6 mice [2]; 4.5-mg/kg i.p. 24 h prior to glucose, 180 min): 2.8 ± 0.2 mM
- Glucose lowering effect (C57/BL/6 mice [2]; treatment 24 hours prior to glucose): smaller and not reproducible in additional experiments
- Blood glucose ([3]; 0 min): 3.1 ± 0.2 mM
- Blood glucose ([3]; 30 min): 4.8 ± 0.3 mM
- Blood glucose ([3]; 60 min): 3.5 ± 0.2 mM
- Blood glucose (Wistar rats; rats starved 14 h, i.p. 30 min prior to glucose 3-g/kg i.p., 0 min): 5.03 ± 0.44 mM
- Blood glucose (Wistar rats; rats, i.p. 30 min prior to glucose, 30 min): 9.21 ± 0.45 mM
- Blood glucose (Wistar rats; rats, i.p. 30 min prior to glucose, 60 min): 5.73 ± 0.39 mM
- Blood glucose (Wistar rats; rats, i.p. 30 min prior to glucose, 90 min): 5.11 ± 0.42 mM
- Blood glucose (Wistar rats; rats, i.p. 30 min prior to glucose, 120 min): 5.37 ± 0.36 mM
